Assay results taken from patent US20250034185A1 (priority 2021, published 2025).

Test system: plasma enzymes
Settings: for P5P formed / relative P5P formed: Sprague Dawley, rat
Wherever P5P formed is given: test concentration or dose not given here.

SMILES: COC(=O)[C@H](C)NP(=O)(OCc1cnc(C)c(O)c1CO)Oc1ccccc1 (stereo partly drawn) [Compound 15vi, (2S)-Methyl 2-(((5-hydroxy-4-(hydroxymethyl)-6-methylpyridin-3-yl)methoxy)(phenoxy)phosphorylamino)propanoate]
- P5P formed: 0 µM
- relative P5P formed: 0.0%

SMILES: Cc1ncc(COP(=O)(N[C@@H](C)C(=O)OCC2CCCC2)Oc2ccccc2)c(CO)c1O (stereo partly drawn) [Compound 15vii, (2S)-Cyclopentylmethyl 2-(((5-hydroxy-4-(hydroxymethyl)-6-methylpyridin-3-yl)methoxy)(phenoxy)phosphorylamino)propanoate]
- P5P formed: 0 µM
- relative P5P formed: 0.0%

SMILES: Cc1ncc(COP(=O)(N[C@@H](C)C(=O)OC(C)C)Oc2cccc3ccccc23)c(CO)c1O (stereo partly drawn) [Compound 15x, (2S)-Isopropyl 2-(((5-hydroxy-4-(hydroxymethyl)-6-methylpyridin-3-yl)methoxy)(naphthalen-1-yloxy)phosphorylamino)propanoate]
- P5P formed: 0 µM
- relative P5P formed: 0.0%

SMILES: Cc1ncc(COP(=O)(N[C@@H](C)C(=O)OCc2ccccc2)Oc2ccccc2)c(CO)c1O (stereo partly drawn) [Compound 15xi, (2S)-Benzyl 2-(((5-hydroxy-4-(hydroxymethyl)-6-methylpyridin-3-yl)methoxy)(phenoxy)phosphorylamino)propanoate]
- P5P formed: 1.1 µM
- relative P5P formed: 10.5%

SMILES: Cc1ncc(COP(=O)(N[C@H](C(=O)OC(C)C)C2CCCC2)Oc2ccccc2)c(CO)c1O (stereo partly drawn) [Compound 15xii, (2S)-Isopropyl 2-cyclopentyl-2-(((5-hydroxy-4-(hydroxymethyl)-6-methylpyridin-3-yl)methoxy)(phenoxy)phosphorylamino)acetate]
- P5P formed: 0.2 µM
- relative P5P formed: 7.4%

SMILES: Cc1ncc(COP(=O)(N[C@@H](CC(C)C)C(=O)OC(C)C)Oc2ccccc2)c(CO)c1O (stereo partly drawn) [Compound 15xiii, (2S)-Isopropyl 2-(((5-hydroxy-4-(hydroxymethyl)-6-methylpyridin-3-yl)methoxy)(phenoxy)phosphorylamino)-4-methylpentanoate]
- P5P formed: 0.8 µM
- relative P5P formed: 15.7%

SMILES: Cc1ncc(COP(=O)(NC(CC(F)(F)F)C(=O)OC(C)C)Oc2ccccc2)c(CO)c1O (stereo not drawn) [Compound 15xiv, Isopropyl 4,4,4-trifluoro-2-(((5-hydroxy-4-(hydroxymethyl)-6-methylpyridin-3-yl)methoxy)(phenoxy)phosphorylamino)butanoate]
- P5P formed: 0.1 µM
- relative P5P formed: 2.6%

SMILES: [2H]c1c([2H])c([2H])c(OP(=O)(N[C@@H](C)C(=O)OC(C)C)OCc2cnc(C)c(O)c2CO)c([2H])c1[2H] (stereo partly drawn) [Compound 15xix]
- P5P formed: 0.4 µM
- relative P5P formed: 7.4%

SMILES: Cc1ncc(COP(=O)(N[C@@H](C)C(=O)OC(C)C)Oc2ccccc2)c(CO)c1OC(=O)c1ccccc1 (stereo partly drawn) [Compound 15xvii, (2S)-Isopropyl 2-(((5-benzoyloxy-4-(hydroxymethyl)-6-methylpyridin-3-yl)methoxy)(phenoxy)phosphorylamino)propanoate]
- P5P formed: 0.3 µM
- relative P5P formed: 8.3%

SMILES: [2H]C([2H])([2H])c1ncc(C([2H])([2H])OP(=O)(N[C@@H](C)C(=O)OC(C)C)Oc2ccccc2)c(CO)c1O (stereo partly drawn) [Compound 15xxxi]
- P5P formed: 0.5 µM
- relative P5P formed: 20.0%

SMILES: CCC(CC)COC(=O)[C@H](C)NP(=O)(OCc1cnc(C)c(O)c1CO)Oc1ccccc1 (stereo partly drawn) [Compound 15xxxiv]
- P5P formed: 0 µM
- relative P5P formed: 0.0%

SMILES: Cc1ncc(COP(=O)(N[C@@H](C)C(=O)OC(C)C)Oc2cccc3ccccc23)c(C=O)c1O (stereo partly drawn) [Compound 16iv, (2S)-Isopropyl 2-(((4-formyl-5-hydroxy-6-methylpyridin-3-yl)methoxy)(naphthalen-1-yloxy)phosphorylamino)propanoate]
- P5P formed: 1.8 µM
- relative P5P formed: 47.4%

SMILES: Cc1ncc(COP(=O)(N[C@@H](C)C(=O)OCc2ccccc2)Oc2ccccc2)c(C=O)c1O (stereo partly drawn) [Compound 16ix, (2S)-Benzyl 2-(((4-formyl-5-hydroxy-6-methylpyridin-3-yl)methoxy)(phenoxy)phosphorylamino)propanoate]
- P5P formed: 10.3 µM
- relative P5P formed: 98.1%

SMILES: Cc1ncc(COP(=O)(N[C@@H](C)C(=O)OCC2CCCC2)Oc2ccccc2)c(C=O)c1O (stereo partly drawn) [Compound 16x, (2S)-Cyclopentylmethyl 2-(((4-formyl-5-hydroxy-6-methylpyridin-3-yl)methoxy)(phenoxy)phosphorylamino)propanoate]
- P5P formed: 1.95 µM
- relative P5P formed: 121.9%

SMILES: Cc1ncc(COP(=O)(N[C@@H](C)C(=O)Oc2ccc(Cl)cc2)Oc2ccccc2)c(C=O)c1O (stereo partly drawn) [Compound 16xL, (2S)-4-Chlorophenyl 2-(((4-formyl-5-hydroxy-6-methylpyridin-3-yl)methoxy)(phenoxy)phosphorylamino)propanoate]
- P5P formed: 3.6 µM
- relative P5P formed: 171.4%

SMILES: Cc1ncc(COP(=O)(NC(CC(F)(F)F)C(=O)OC(C)C)Oc2ccccc2)c(C=O)c1O (stereo not drawn) [Compound 16xi, Isopropyl 4,4,4-trifluoro-2-(((4-formyl-5-hydroxy-6-methylpyridin-3-yl)methoxy)(phenoxy)phosphorylamino)butanoate]
- P5P formed: 0.6 µM
- relative P5P formed: 15.8%

SMILES: Cc1ncc(COP(=O)(N[C@@H](Cc2cn(C(=O)OC(C)(C)C)c3ccccc23)C(=O)OC(C)C)Oc2ccccc2)c(C=O)c1O (stereo partly drawn) [Compound 16xiii, Tert-butyl 3-((2S)-2-(((4-formyl-5-hydroxy-6-methylpyridin-3-yl)methoxy)(phenoxy)phosphorylamino)-3-isopropoxy-3-oxopropyl)-1H-indole-1-carboxylate]
- P5P formed: 0.3 µM
- relative P5P formed: 7.9%

SMILES: Cc1ncc(COP(=O)(N[C@@H](C)C(=O)Oc2ccc3ccccc3c2)Oc2ccccc2)c(C=O)c1O (stereo partly drawn) [Compound 16xiv, (2S)-Naphthalen-2-yl 2-(((4-formyl-5-hydroxy-6-methylpyridin-3-yl)methoxy)(phenoxy)phosphorylamino)propanoate]
- stability in DMSO (stock solution): unstable in DMSO

SMILES: Cc1ncc(COP(=O)(NCC(=O)OC(C)C)Oc2ccccc2)c(C=O)c1O (stereo not drawn) [Compound 16xv, Isopropyl 2-(((4-formyl-5-hydroxy-6-methylpyridin-3-yl)methoxy)(phenoxy)phosphorylamino)acetate]
- stability in DMSO (stock solution): unstable in DMSO

SMILES: [2H]c1c([2H])c([2H])c(OP(=O)(N[C@@H](C)C(=O)OC(C)C)OCc2cnc(C)c(O)c2C=O)c([2H])c1[2H] (stereo partly drawn) [Compound 16xx]
- P5P formed: 1.4 µM
- relative P5P formed: 38.9%

SMILES: [2H]C([2H])([2H])C([2H])(OC(=O)[C@H](C)NP(=O)(OCc1cnc(C)c(O)c1C=O)Oc1ccccc1)C([2H])([2H])[2H] (stereo partly drawn) [Compound 16xxi]
- P5P formed: 0.3 µM
- relative P5P formed: 17.6%

SMILES: [2H]C([2H])([2H])C(OC(=O)[C@H](C)NP(=O)(OCc1cnc(C)c(O)c1C=O)Oc1ccccc1)C([2H])([2H])[2H] (stereo partly drawn) [Compound 16xxii]
- P5P formed: 6.3 µM
- relative P5P formed: 153.7%

SMILES: Cc1ccc(OC(=O)[C@H](C)NP(=O)(OCc2cnc(C)c(O)c2C=O)Oc2ccccc2)cc1 (stereo partly drawn) [Compound 16xxiii, (2S)-p-Tolyl 2-(((4-formyl-5-hydroxy-6-methylpyridin-3-yl)methoxy)(phenoxy)phosphorylamino)propanoate]
- P5P formed: 2 µM
- relative P5P formed: 74.1%

SMILES: Cc1ncc(COP(=O)(N[C@@H](C)C(=O)OC2CCCC2)Oc2ccccc2)c(C=O)c1O (stereo partly drawn) [Compound 16xxiv, (2S)-Cyclopentyl 2-(((4-formyl-5-hydroxy-6-methylpyridin-3-yl)methoxy)(phenoxy)phosphorylamino)propanoate]
- P5P formed: 2.2 µM
- relative P5P formed: 129.4%

SMILES: Cc1ncc(COP(=O)(N[C@@H](Cc2ccc(OCc3ccccc3)cc2)C(=O)OC(C)C)Oc2ccccc2)c(C=O)c1O (stereo partly drawn) [Compound 16xxix, (2S)-Isopropyl 3-(4-(benzyloxy)phenyl)-2-(((4-formyl-5-hydroxy-6-methylpyridin-3-yl)methoxy)(phenoxy)phosphorylamino)propanoate]
- P5P formed: 2.4 µM
- relative P5P formed: 58.5%

SMILES: [2H]C([2H])(OP(=O)(N[C@@H](C)C(=O)OC(C)C)Oc1ccccc1)c1cnc(C)c(O)c1C=O (stereo partly drawn) [Compound 16xxvii]
- P5P formed: 2 µM
- relative P5P formed: 69.0%

SMILES: Cc1ncc(COP(=O)(N[C@H](C(=O)OC(C)C)C2CCCC2)Oc2ccccc2)c(C=O)c1O (stereo partly drawn) [Compound 16xxviii, (2S)-Isopropyl 2-cyclopentyl-2-(((4-formyl-5-hydroxy-6-methylpyridin-3-yl)methoxy)(phenoxy)phosphorylamino)acetate]
- P5P formed: 0.4 µM
- relative P5P formed: 9.8%

SMILES: Cc1ncc(COP(=O)(N[C@@H](Cc2ccc(O)cc2)C(=O)OC(C)C)Oc2ccccc2)c(C=O)c1O (stereo partly drawn) [Compound 16xxx, (2S)-Isopropyl 2-(((4-formyl-5-hydroxy-6-methylpyridin-3-yl)methoxy)(phenoxy)phosphorylamino)-3-(4-hydroxyphenyl)propanoate]
- P5P formed: 2.2 µM
- relative P5P formed: 75.9%

SMILES: Cc1ncc(COP(=O)(N[C@@H](C)C(=O)OC2CCN(C)CC2)Oc2ccccc2)c(C=O)c1O (stereo partly drawn) [Compound 16xxxi, (2S)-1-Methylpiperidin-4-yl 2-(((4-formyl-5-hydroxy-6-methylpyridin-3-yl)methoxy)(phenoxy)phosphorylamino)propanoate]
- P5P formed: 0.4 µM
- relative P5P formed: 13.8%

SMILES: COCCOC(=O)[C@H](C)NP(=O)(OCc1cnc(C)c(O)c1C=O)Oc1ccccc1 (stereo partly drawn) [Compound 16xxxii, (2S)-2-Methoxyethyl 2-(((4-formyl-5-hydroxy-6-methylpyridin-3-yl)methoxy)(phenoxy)phosphorylamino)propanoate]
- P5P formed: 4.9 µM
- relative P5P formed: 144.1%

SMILES: COC(=O)[C@@H]1CCCN1P(=O)(OCc1cnc(C)c(O)c1C=O)Oc1ccccc1 (stereo partly drawn) [Compound 16xxxiii, (2S)-Methyl 1-(((4-formyl-5-hydroxy-6-methylpyridin-3-yl)methoxy)(phenoxy)phosphoryl)pyrrolidine-2-carboxylate]
- P5P formed: 0.4 µM
- relative P5P formed: 11.8%
